Entries after “also recorded” stand apart in the source; their conditions may differ. Where a SMILES comes first, the peptide text is derived from it.
Key:
GFAP-positive astrocytes = experiment: Astrocytosis, GFAP staining in aged brains; assay type: in vivo, rat; settings: 18-month old rats; i.p.; 3 d; particularly 0.12 and 12 mg/kg; p<0.05
Protocol: To carry out these studies, tissues were fixed and embedded in paraffin and sections obtained using standard methods. Coronal sections (6 μm) containing the level of the hippocampus were cut and mounted on chrome-alum-coated slides for staining. The sections were deparaffinized in xylene, […] in a series of ethanol and incubated in 0.1 M phosphate buffered saline (PBS). Primary antibodies against glial fibrillary acidic protein (GFAP) and proliferating cell nuclear antigen (PCNA) were used to mark reactive glial cells and cells undergoing apoptosis and proliferation, respectively. For antigen unmasking (caspase-3 and PCNA staining), sections were heated in 10 mM sodium citrate buffer (pH 6.0) for 1 min at high power. All sections were pretreated with 1% H2O2 in 50% methanol for 30 min to quench the endogenous peroxidase activity. […] The number of PCNA positive cells was counted in the subventricular zone and the GFAP positive cells was scored in the cerebral cortex. We also evaluated effects of G-2-MePE on astrocytosis in the CA4 sub-region of the hippocampus in aged rats. […] GFAP-positive cells were counted using a computerised program (Discovery 1). G-2-MePE was administered intra-peritoneally and the numbers of GFAP-positive cells were assessed 3d after the injection. […]

Akt = experiment: Western blot of phosphorylated Akt; assay type: in vivo, mouse; settings: fmr1 KO; 100 mg/kg 4 weeks; p<0.05
Protocol: Phosphorylated Extracellular Signal-Regulated Protein Kinase (ERK) and Protein Kinase B (Akt) expression was measured by Western blot analysis in lymphocytes from fmr1 KO and wild-type animals administered ether vehicle or G-2MePE (100 mg/kg, i.p.; 28 days) treated in the behavior experiments as previously described (Lopez Verrilli et al. 2009). ERK is a classical MAPK signal transduction protein, responsible for growth factor transduction, proliferation, cytokine response to stress and apoptosis. […]
To conduct the western blots, antibodies were used against Akt ( 1/1000) (Cell Signaling), ERK1/2 ( 1/2000) (Cell Signaling), antiphospho-Akt ( 1/1000) and antiphospho-ERK ( 1/2000) (Cell Signaling). Total Akt and ERK 1/2 protein content (phosphorylated) were evaluated by blotting membranes with antiphospho-Akt ( 1/1000) and antiphospho-ERK antibodies ( 1/2000) (Cell Signaling). Akt or ERK phosphorylation was normalized to protein content in the same sample and expressed as % of change with respect to basal conditions, considering basal levels as 100%. Protein loading was evaluated by stripping and re-blotting membranes with b-actin antibody ( 1/1000) (Sigma Chemical Co.). […]

[1] = test system: subjects with an Autism Spectrum Disorder; experiment: Placebo-controlled crossover study in subjects with Autism Spectrum Disorder (Example 16); assay type: in vivo, human
From the text: To determine whether G-2-MePE can treat symptoms of ASD, we carry out a study in human beings with ASD. Twenty subjects with an Autism Spectrum Disorder are recruited. Subjects are male and aged between 16 and 65 years (Mean=18.1 SD=3.4). All subjects have an IQ>60 and strict DSM-IV-TR diagnosis of Autistic Disorder or Asperger Disorder. Subjects also meet criteria for an Autism Spectrum Disorder according the ADI-R and ADOS-G instruments, and fulfill the proposed DSM-V criteria for and Autism Spectrum Disorder. Subjects are instructed that concomitant medications are to be stable for at least six weeks prior to study. Subjects receiving medication to treat signs of inattention are tested in the morning and instructed to take their medication in the afternoon. Subjects better treated with atypical anti-psychotic medications indicated for autism are excluded. Subjects are screened for known genetic disorders including and those with Fragile X Syndrome or tuberous sclerosis excluded. Subjects with uncontrolled epilepsy are excluded. The study is a double blind placebo-controlled crossover study with three phases. Subjects enter each phase of the crossover in a randomized order. In the test phases, subjects receive either placebo, 10 mg/kg T.I.D oral G-2-MePE for five days, or 30 mg/kg T.I.D. oral G-2-MePE. Each phase of the crossover is separated by a washout period of fourteen days. Subjects are tested at baseline using the following instruments: Wechsler IQ, Abberant Behavior Checklist Community Edition (ABC), […], Yale-Brown Obsessive Compulsive Scale (YBOCS) compulsion subscale, Social Responsiveness Scale (SRS), Clinical Global Impression of Severity (CGI-S) and their […] complete the Caregiver Strain Questionnaire (CSQ). Subjects are administered two tasks-the Reading the Mind in the Eyes Test-Revised (RMET) and an Eye Tracking (ET) task, as well as Clinical Global Impression of Improvement (CGI-I). Tasks commence two hours following administration of placebo or either dose of G-2-MePE. The RMET is a computer based task that assesses one's ability to read emotions from the eyes of subtle affective facial expressions and is a widely used test of emotion recognition in patients with autism (2001). Importantly, the RMET is capable of detecting improvement with even a single dose of a pharmacological agent (Guastella et al., 2010). Eye tracking issues are characteristic of patients with autism who spend less time looking at the eyes of photographs of human faces. Again, a single administration of a pharmacologic intervention can ameliorate eye tracking deficits in autism ([…] et al, 2010). Adverse events are also recorded using standard safety measures. Statistically, the effect of treatment with G-2-MePE is analysed by conducting a repeated analysis of covariance (ANCOVA) on the effect of treatment on change from baseline scores.

SMILES: C[C@@]1(C(=O)N[C@@H](CCC(=O)O)C(=O)O)CCCN1C(=O)CN [Example G-2-MePE, Glycyl-L-2-methylprolyl-L-glutamic acid] (HELM PEPTIDE1{G.[C[C@@]1(C(=O)[*:2])CCCN1[*:1]].E}$$$$V2.0)
- number of reactive astrocytes (GFAP) in CA4 region of hippocampus (GFAP-positive astrocytes): reduced number of reactive astrocytes
- Akt phosphorylation compared to total Akt (Akt): significant reduction in Akt phosphorylation
- percent correct responses on the RMET ([1]; 30 mg/kg T.I.D. oral): increases the percent correct responses
- Serious Adverse Events ([1]; 10 or 30 mg/kg T.I.D. oral): No Serious Adverse Events
- adverse events / tolerability ([1]; 10 or 30 mg/kg T.I.D. oral): no more adverse events than were present during treatment with placebo; also recorded: well tolerated
- performance of the RMET test, overall ([1]; human, in vivo): significant overall improvement
- time spent looking at the eye region in the ET test ([1]; human, in vivo): significant overall improvement

Source: patent publication US20150224164A1, “TREATMENT OF AUTISM SPECTRUM DISORDERS USING GLYCYL-L-2-METHYLPROLYL-L-GLUMATIC ACID” (Neuren Pharmaceuticals Limited, priority 2013, published 2015)
